Like-named read-outs stand apart in the source and are kept apart here.
Key:
[1] = target: EGFR (WT) (Homo sapiens (Human), UniProt P00533); assay: Omnia biochemical assay, EGFR-WT active enzyme; details: [EGFR-WT]=5 nM, [ATP]=15 uM, 30 min pre-incubation
Protocol: Kinase reactions were started with the addition of 45 μL of the ATP/Tyr-Sox peptide substrate mix and monitored every 71 seconds for 60 minutes at λex360/λem485 in a Synergy^4 plate reader from BioTek (Winooski, Vt.).
The compound numbers correspond to the compound numbers in Table 1.

[2] = tested on: H1975 cells (EGFR L858R/T790M); assay: Cell proliferation (CellTiter Glo), H1975 cells
Protocol: A431 human epidermoid carcinoma, H1975 human NSCLC and HCC827 human NSCLC adenocarcinoma cells were obtained from the American Type Culture Center (Manassas, Va.). A431 cells were grown in DMEM (Invitrogen, Carlsbad, Calif.) supplemented with 10% FBS (HyClone, South Logan, Utah) and 1% Penicillin-Streptomycin (P/S, Lonza, Walkersville, Md.).
Cells were plated in Growth Media supplemented with 5% FBS and 1% P/S at a density of 3,000 cells per well in 96 well tissue culture plates (Corning). […] Growth inhibition (GI50) values were determined by Graph Pad Prism.

[3] = tested on: HCC827 cells (EGFR delE746-A750); assay: Cell proliferation (CellTiter Glo), HCC827 cells
[4] = proliferation GI50 WT EGFR / H1975
[5] = proliferation GI50 WT EGFR / HCC827

Sequence of EGFR (WT) (P00533 25-1210): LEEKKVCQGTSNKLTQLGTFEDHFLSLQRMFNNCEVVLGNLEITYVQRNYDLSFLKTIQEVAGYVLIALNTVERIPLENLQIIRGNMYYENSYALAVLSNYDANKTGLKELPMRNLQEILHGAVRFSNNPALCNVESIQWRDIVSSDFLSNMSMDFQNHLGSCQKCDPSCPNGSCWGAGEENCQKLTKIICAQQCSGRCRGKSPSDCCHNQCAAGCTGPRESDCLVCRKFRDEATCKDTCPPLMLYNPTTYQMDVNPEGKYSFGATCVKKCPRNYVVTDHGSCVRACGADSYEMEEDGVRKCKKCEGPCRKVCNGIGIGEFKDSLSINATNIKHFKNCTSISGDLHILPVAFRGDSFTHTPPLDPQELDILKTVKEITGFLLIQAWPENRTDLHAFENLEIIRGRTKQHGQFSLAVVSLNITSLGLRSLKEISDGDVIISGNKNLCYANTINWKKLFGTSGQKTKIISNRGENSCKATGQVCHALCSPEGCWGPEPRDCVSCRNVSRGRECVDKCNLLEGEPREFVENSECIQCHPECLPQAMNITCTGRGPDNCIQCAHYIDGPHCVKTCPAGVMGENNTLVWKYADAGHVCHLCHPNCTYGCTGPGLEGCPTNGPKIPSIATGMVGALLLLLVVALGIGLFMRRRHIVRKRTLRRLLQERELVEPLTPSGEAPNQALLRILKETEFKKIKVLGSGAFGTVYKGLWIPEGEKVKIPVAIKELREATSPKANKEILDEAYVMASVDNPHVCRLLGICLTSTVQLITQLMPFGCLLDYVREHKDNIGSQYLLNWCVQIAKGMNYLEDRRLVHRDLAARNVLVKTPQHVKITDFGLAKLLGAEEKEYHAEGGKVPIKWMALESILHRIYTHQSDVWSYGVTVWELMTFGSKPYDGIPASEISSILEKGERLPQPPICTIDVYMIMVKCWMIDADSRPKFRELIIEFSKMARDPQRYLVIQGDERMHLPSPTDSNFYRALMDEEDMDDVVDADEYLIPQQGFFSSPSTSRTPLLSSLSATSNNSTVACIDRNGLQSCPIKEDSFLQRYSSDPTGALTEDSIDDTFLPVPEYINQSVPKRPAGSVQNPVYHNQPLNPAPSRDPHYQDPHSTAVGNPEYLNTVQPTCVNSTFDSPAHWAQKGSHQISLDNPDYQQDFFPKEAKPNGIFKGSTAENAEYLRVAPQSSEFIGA

Structure (SMILES) | IC50 [1] [µM] | Ratio WT/mutant (H1975) [2, 4] | Ratio WT/mutant (HCC827) [3, 5] | Ratio WT/mutant (H1975) [2] | Ratio WT/mutant (HCC827) [3]
C=CC(=O)Nc1cccc(Oc2nc(Nc3ccc(N4CCN(C(=O)OC(C)(C)C)CC4)cc3OC)ncc2C(F)(F)F)c1 [Compound I-42, tert-butyl 4-(4-(4-(3-acrylamidophenoxy)-5-(trifluoromethyl)pyrimidin-2-ylamino)-3-methoxyphenyl)piperazine-1-carboxylate] | 0.3 to 1 |  |  |  | 
C=CC(=O)Nc1cccc(Nc2nc(Nc3ccc(N4CCN(C(=O)CO)CC4)cc3OC(F)F)ncc2C(F)(F)F)c1 [Compound I-31, N-(3-(2-(2-(difluoromethoxy)-4-(4-(2-hydroxyacetyl)piperazin-1-yl)phenylamino)-5-(trifluoromethyl)pyrimidin-4-ylamino)phenyl)acrylamide] | < 0.001 |  |  |  | 
C=CC(=O)Nc1cccc(Oc2nc(Nc3ccc(N4CCN(C(=O)OC(C)(C)C)CC4)cc3OCC)ncc2Cl)c1 [Compound I-18, tert-butyl 4-(4-(4-(3-acrylamidophenoxy)-5-chloropyrimidin-2-ylamino)-3-ethoxyphenyl)piperazine-1-carboxylate] | > 1 | >1 | >5 |  | 
C=CC(=O)Nc1cccc(Nc2nc(Nc3ccc(N4CCN(C(=O)OC(C)(C)C)[C@H](C(=O)OC)C4)cc3OC)ncc2C(F)(F)F)c1 [Compound I-50, (S)-1-tert-butyl 2-methyl 4-(4-(4-(3-acrylamidophenylamino)-5-(trifluoromethyl)pyrimidin-2-ylamino)-3-methoxyphenyl)piperazine-1,2-dicarboxylate] |  | >10 | >50 |  | 
C=CC(=O)Nc1cccc(Oc2nc(Nc3ccc(N4CCOCC4)cc3OC(F)F)ncc2Cl)c1 [Compound I-36, N-(3-(5-chloro-2-(2-(difluoromethoxy)-4-morpholinophenylamino)pyrimidin-4-yloxy)phenyl)acrylamide] | 0.01 to 0.03 | >25 | >50 |  | 
C=CC(=O)Nc1cccc(Oc2nc(Nc3ccc(N4CCN(C(=O)OC)CC4)cc3OC)ncc2C(F)(F)F)c1 [Compound I-20, methyl 4-(4-(4-(3-acrylamidophenoxy)-5-(trifluoromethyl)pyrimidin-2-ylamino)-3-methoxyphenyl)piperazine-1-carboxylate] | 0.01 to 0.03 |  |  | >5 | >15
C=CC(=O)Nc1cccc(Oc2nc(Nc3ccc(N4CCN(C(=O)OC(C)(C)C)CC4)cc3OC(F)(F)F)ncc2Cl)c1 [Compound I-47, tert-butyl 4-(4-(4-(3-acrylamidophenoxy)-5-chloropyrimidin-2-ylamino)-3-(trifluoromethoxy)phenyl)piperazine-1-carboxylate] | > 1 |  |  |  | 
C=CC(=O)Nc1cccc(Oc2nc(Nc3ccc(N4CCCN(C(=O)OC(C)(C)C)CC4)cc3OC)ncc2Cl)c1 [Compound I-43, tert-butyl 4-(4-(4-(3-acrylamidophenoxy)-5-chloropyrimidin-2-ylamino)-3-methoxyphenyl)-1,4-diazepane-1-carboxylate] | 0.3 to 1 |  |  |  | 
C=CC(=O)Nc1cccc(Nc2nc(Nc3ccc(N4CCN(C(C)=O)CC4)cc3OC(F)F)ncc2C(F)(F)F)c1 [Compound I-32, N-(3-(2-(4-(4-acetylpiperazin-1-yl)-2-(difluoromethoxy)phenylamino)-5-(trifluoromethyl)pyrimidin-4-ylamino)phenyl)acrylamide] | < 0.001 |  |  |  | 
C=CC(=O)Nc1cccc(Nc2nc(Nc3ccc(N4CCCOCC4)cc3OC)ncc2C(F)(F)F)c1 [Compound I-38, N-(3-(2-(2-methoxy-4-(1,4-oxazepan-4-yl)phenylamino)-5-(trifluoromethyl)pyrimidin-4-ylamino)phenyl)acrylamide] | 0.01 to 0.03 | >1 | >5 |  | 
C=CC(=O)Nc1cccc(Oc2nc(Nc3ccc(N4CCCN(C(=O)OC(C)(C)C)CC4)cc3OC)ncc2C(F)(F)F)c1 [Compound I-39, tert-butyl 4-(4-(4-(3-acrylamidophenoxy)-5-(trifluoromethyl)pyrimidin-2-ylamino)-3-methoxyphenyl)-1,4-diazepane-1-carboxylate] | > 1 | <1 | >1 |  | 
C=CC(=O)Nc1cccc(Nc2nc(Nc3ccc(N4CCCN(C(=O)C(F)(F)F)CC4)cc3OC)ncc2C(F)(F)F)c1 [Compound I-19, N-(3-(2-(2-methoxy-4-(4-(2,2,2-trifluoroacetyl)-1,4-diazepan-1-yl)phenylamino)-5-(trifluoromethyl)pyrimidin-4-ylamino)phenyl)acrylamide] | 0.1 to 0.3 | >5 | >10 |  | 
C=CC(=O)Nc1cccc(Nc2nc(Nc3ccc(N4CCN(C(=O)NC)CC4)cc3OC)ncc2C(F)(F)F)c1 [Compound I-28, 4-(4-(4-(3-acrylamidophenylamino)-5-(trifluoromethyl)pyrimidin-2-ylamino)-3-methoxyphenyl)-N-methylpiperazine-1-carboxamide] | 0.001 to 0.01 | >5 | >50 |  | 
C=CC(=O)Nc1cccc(Oc2nc(Nc3ccc(N4CCCOCC4)cc3OC)ncc2Cl)c1 [Compound I-37, N-(3-(5-chloro-2-(2-methoxy-4-(1,4-oxazepan-4-yl)phenylamino)pyrimidin-4-yloxy)phenyl)acrylamide] | 0.03 to 0.1 | >1 | >10 |  | 
C=CC(=O)Nc1cccc(Oc2nc(Nc3ccc(N4CCN(C(=O)CC(C)(C)C)CC4)cc3OC)ncc2Cl)c1 [Compound I-23, N-(3-(5-chloro-2-(4-(4-(3,3-dimethylbutanoyl)piperazin-1-yl)-2-methoxyphenylamino)pyrimidin-4-yloxy)phenyl)acrylamide] | 0.1 to 0.3 | >1 | >20 |  | 
